Measured values taken from patent US20100204182A1, “ECTONUCLEOTIDASE INHIBITORS” (RHEINISCHE FRIEDRICH-WILHELMS-UNIVERSITAT BONN, priority 2006, published 2010).

How the values were obtained:
human NTPDase2 = target: T1, human NTPDase2 (Homo sapiens, UniProt Q9Y5L3); assay: NTPDase inhibition assay by capillary electrophoresis (CE), NTPDase2; type: biochemical; settings: for Ki: human NTPDase2, CE method, ATP 320 μM, Km 70 μM, read-out: NTPDase2 Ki [μM] ± SEM
T1 sequence (Q9Y5L3 1-495): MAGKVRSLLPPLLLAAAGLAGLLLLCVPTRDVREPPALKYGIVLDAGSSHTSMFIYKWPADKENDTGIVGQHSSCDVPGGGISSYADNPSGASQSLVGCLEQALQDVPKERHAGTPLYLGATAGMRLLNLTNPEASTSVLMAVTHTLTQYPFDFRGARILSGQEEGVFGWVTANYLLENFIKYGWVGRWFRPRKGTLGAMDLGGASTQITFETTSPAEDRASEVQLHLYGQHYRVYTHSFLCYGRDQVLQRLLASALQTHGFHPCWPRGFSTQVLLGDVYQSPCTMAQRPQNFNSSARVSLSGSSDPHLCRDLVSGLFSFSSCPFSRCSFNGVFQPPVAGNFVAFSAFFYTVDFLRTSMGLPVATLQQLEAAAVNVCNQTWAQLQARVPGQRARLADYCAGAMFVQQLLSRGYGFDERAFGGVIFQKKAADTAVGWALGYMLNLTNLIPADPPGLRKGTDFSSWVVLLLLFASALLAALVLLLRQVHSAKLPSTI

hP2Y12 = hP2Y12 (Homo sapiens, UniProt Q9H244); assay: Inhibition of [3H]PSB-0413 binding at hP2Y12; settings: mean ± SEM, read-out: hP2Y12 % Inhibition of [^3H]PSB-0413 Binding at 10 μM, n = 3
Chain of hP2Y12 (Q9H244 whole entry): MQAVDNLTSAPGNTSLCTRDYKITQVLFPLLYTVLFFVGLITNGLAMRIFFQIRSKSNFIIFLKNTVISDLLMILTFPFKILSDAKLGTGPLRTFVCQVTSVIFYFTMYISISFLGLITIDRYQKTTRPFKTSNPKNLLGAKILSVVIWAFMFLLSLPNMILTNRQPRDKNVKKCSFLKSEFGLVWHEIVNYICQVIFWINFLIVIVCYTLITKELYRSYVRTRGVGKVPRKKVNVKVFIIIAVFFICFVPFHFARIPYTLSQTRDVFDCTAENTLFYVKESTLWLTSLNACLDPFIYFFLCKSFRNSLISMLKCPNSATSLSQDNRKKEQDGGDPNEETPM
Description: In table 2 inhibition data of selected examples at human P2Y receptor subtypes were collected. It can be seen that no compound was identified that inhibited P2Y receptors at high concentrations of 100 μM and 10 μM, respectively.

human NTPDase1 = target: T2, human NTPDase1 (Homo sapiens, UniProt P49961); assay: NTPDase inhibition assay by capillary electrophoresis (CE), NTPDase1; type: biochemical; settings: ATP 320 μM; for Ki: CE method, Km 17 μM, read-out: NTPDase1 Ki [μM] ± SEM
T2 sequence (P49961 1-510): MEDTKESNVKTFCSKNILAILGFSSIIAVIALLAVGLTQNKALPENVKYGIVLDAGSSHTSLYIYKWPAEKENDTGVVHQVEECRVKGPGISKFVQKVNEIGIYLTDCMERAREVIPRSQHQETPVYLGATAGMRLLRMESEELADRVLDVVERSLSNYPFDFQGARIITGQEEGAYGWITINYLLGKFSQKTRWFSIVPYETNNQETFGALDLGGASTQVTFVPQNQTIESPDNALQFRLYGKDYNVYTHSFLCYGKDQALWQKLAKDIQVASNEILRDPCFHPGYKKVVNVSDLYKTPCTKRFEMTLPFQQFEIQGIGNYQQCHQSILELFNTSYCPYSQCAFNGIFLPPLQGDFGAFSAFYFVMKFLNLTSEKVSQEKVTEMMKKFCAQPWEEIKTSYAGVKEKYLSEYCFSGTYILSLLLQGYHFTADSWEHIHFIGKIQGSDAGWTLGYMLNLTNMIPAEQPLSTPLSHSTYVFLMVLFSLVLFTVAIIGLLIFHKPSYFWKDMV
Method in brief: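 Recombinant or native human NTPDase was run with 320 μM ATP in Hepes buffer pH 7.4 (NaCl, KCl, MgCl2, CaCl2) at 37° C for 15 min, stopped by heating at 99° C. Products were quantified by capillary electrophoresis (UV 210 nm, UMP internal standard). IC50 from 6-8 concentrations was converted to Ki by Cheng-Prusoff.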

human NTPDase8 = target: T3, human NTPDase8 (Homo sapiens, UniProt Q5MY95); assay: NTPDase inhibition assay by capillary electrophoresis (CE), NTPDase8; type: biochemical; settings: for inhibition at 1000 µM: human NTPDase8, 1 mM compound, ATP 320 μM; for Ki: read-out: NTPDase8 Ki [μM] ± SEM
T3 sequence (Q5MY95 1-495): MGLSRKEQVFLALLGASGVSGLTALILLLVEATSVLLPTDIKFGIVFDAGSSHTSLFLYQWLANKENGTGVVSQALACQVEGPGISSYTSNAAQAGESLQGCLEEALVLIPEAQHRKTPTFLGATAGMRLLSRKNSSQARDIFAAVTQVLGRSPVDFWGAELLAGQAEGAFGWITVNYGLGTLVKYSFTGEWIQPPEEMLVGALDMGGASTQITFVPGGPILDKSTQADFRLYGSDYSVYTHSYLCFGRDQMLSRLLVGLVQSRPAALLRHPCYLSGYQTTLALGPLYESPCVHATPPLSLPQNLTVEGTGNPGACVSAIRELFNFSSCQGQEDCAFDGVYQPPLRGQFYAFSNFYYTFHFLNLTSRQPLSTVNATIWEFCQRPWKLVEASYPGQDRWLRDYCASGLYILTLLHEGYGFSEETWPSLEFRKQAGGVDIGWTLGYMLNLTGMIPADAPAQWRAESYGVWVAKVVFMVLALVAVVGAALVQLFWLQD
Description: The applied enzyme inhibition assay has been described (Iqbal J, Vollmayer P, Braun N, Zimmermann H, Müller C E. A capillary electrophoresis method for the characterization of ecto-nucleoside triphosphate diphosphohydrolases (NTPDases) and the analysis of inhibitors by in-capillary enzymatic microreaction. Purinergic Signalling 2005, 1, 349-358).
A. CE instrumentation: All experiments were carried out using a P/ACE MDQ capillary electrophoresis system (Beckman Instruments, Fullerton, Calif., USA) equipped with a UV detection system coupled with a diode-array detector (DAD). Data collection and peak area analysis were performed by the P/ACE MDQ software 32 KARAT obtained from Beckman Coulter. The capillary temperature was kept constant at 25° C. The temperature of the sample storing unit was also adjusted to 25° C. The electrophoretic separations were carried out using an eCAP polyacrylamide-coated fused-silica capillary [(30 cm (20 cm effective length)×50 μm internal diameter (I.D.)×360 μm outside diameter (O.D.), obtained from CS-Chromatographie (Langerwehe, Germany)]. The separation was performed using an applied current of −60 μA and a data acquisition rate of 8 Hz. Analytes were detected using direct UV absorbance at 210 nm. The capillary was conditioned by rinsing with water for 2 min and subsequently with buffer (phosphate 50 mM, pH 6.5) for 1 min. Sample injections were made at the cathodic side of the capillary.
B. NTPDase inhibition assay by capillary electrophoresis: Enzyme inhibition assays were carried out at 37° C. in a final volume of 100 μl. The reaction mixture contained 320 μM of ATP (substrate) in reaction buffer. The reaction buffer contained 140 mM NaCl, 5 mM KCl, 1 mM MgCl2, 2 mM CaCl2, and 10 mM Hepes, pH 7.4.
Different concentrations of inhibitors dissolved in DMSO or water (10 μl) were added and the reaction was initiated by the addition of 10 μl of the appropriately diluted recombinant or native human or rat NTPDase enzyme. […] The mixture (final volume 100 μl) was incubated for 15 min and terminated by heating at 99° C. for 4 min. Aliquots of the reaction mixture (50 μl) were then transferred to mini-CE vials and injected into the CE instrument under the conditions described above. 20 μM of UMP was used as internal standard. Inhibition of NTPDase was tested over a range of 6 to 8 concentrations of test compound spanning 3 orders of magnitude to determine K1 values. Each analysis was repeated two times (in triplicates) in two separate experiments. The Cheng-Prusoff equation was used to calculate the K1 values from the IC50 values, determined by the non-linear curve fitting program PRISM® 3.0 (GraphPad, San Diego, Calif., USA). In table 1K, values of selected compounds as inhibitors of human NTPDases are given.

| Compound | Ki (human NTPDase2) [µM] | inhibition at 10 µM (hP2Y12) [%] | Ki (human NTPDase1) [µM] | inhibition at 1000 µM (human NTPDase8) [%] | Ki (human NTPDase8) [µM] | inhibitor of NTPDase (in words) (human NTPDase2; in words, compare Tab. 1) | inhibition at 1000 µM (human NTPDase1; 1 mM compound) [%] |
| --- | --- | --- | --- | --- | --- | --- | --- |
| CCOP(=O)(Cc1ccc(NC(=O)CCNC(=O)[C@H]2O[C@@H](n3ccc(=O)[nH]c3=O)C(O)C2O)cc1)OCC (stereo in doubt) [Compound 3, 4-[3-((2S,3R,4S,5R)-5-(2,4-Dioxo-3,4-dihydropyrimidin-1(2H)-yl)-3,4-di-hydroxy-tetrahydrofurane-2-carboxamido)propaneamido]benzylphosphonic acid diethylester] | 173 ± 17 | 9 ± 4 | 55.2 ± 2.6 | 0 | > 100 |  |  |
| CCOP(=O)(Cc1ccc(NC(=O)CNC(=O)[C@H]2O[C@@H](n3ccc(=O)[nH]c3=O)C(O)C2O)cc1)OCC (stereo in doubt) [Compound 2, 4-[2-((2S,3R,4S,5R)-5-(2,4-Dioxo-3,4-dihydropyrimidin-1(2H)-yl)-3,4-dihydroxy-tetrahydrofurane-2-carboxamido)ethaneamido]benzylphosphonic acid diethylester] | 8.2 ± 2.1 | 2 ± 6 | > 50 | 0 | > 100 | excellent inhibitor | 50 |
